This note sets out measurements from patent US12060438B2, “Cyclic peptide compounds and methods of use thereof” (MODULATION THERAPEUTICS, INC., priority 2018, dated 2024).

“Also recorded” adds a separate entry of the source. Starred links: 1 amine or outer side, 2 acyl side, 3 side chain; linkers in the order of their positions; H or OH if unused. Positions of bridges follow the written chain, without caps; N, C: chain ends. Non-standard residues stand in square brackets, D forms with d. Residues, ends and D or L forms follow the SMILES beside them. *: point of attachment. dProlinol(O-CH2CO) = O=C(COC[C@H]1CCCN1[*:1])[*:2]; N(2-Aminoethyl)Gly = O=C(CN(CCN[*:3])[*:1])[*:2]; X1 = N[C@@H](CS)C(=O)NCCCS(=O)(=O)*; Nle = CCCC[C@H](N)C(=O)O

The test deals with U266 myeloma cell line. In words: Cell death in U266 myeloma cell line (Dapi dead / Fluo-4 live staining, imaging). The settings on record: Dapi for dead cells, Fluo-4 for live cells, imaged at 6 hours, n=3, compared with Compound A (FIG. 1). The test is classed as cell-based. The protocol: Compound 2 was tested alongside Compound A and cell death was measured in a U266 myeloma cell line. Dapi staining was used for detection of dead cells and Fluo-4 was used for staining live cells. Cells were then imaged at 6 hours using a Cytation 5 Biotek imaging plate reader.

`CCCC[C@@H]1NC(=O)CN(S(=O)(=O)CCCNC(=O)[C@@H](N)CS)CCNC(=O)[C@H](CCCCN)NC(=O)[C@H](CC(C)C)NC(=O)[C@H](CCCCN)NC(=O)[C@H](CC(C)C)NC(=O)[C@H](CCCCN)NC(=O)COC[C@H]2CCCN2C(=O)[C@H](Cc2c[nH]c3ccccc23)NC(=O)[C@H](C)NC(=O)[C@H](C(C)C)NC(=O)[C@H](C(C)C)NC1=O` [Compound 2] (X1-[N(2-Aminoethyl)Gly][Nle]VVAW[dProlinol(O-CH2CO)]KLKLK; lactam 1-C): the “potency (cell death)” value is given as “increased potency relative to Compound A; also recorded: more potency compared to Compound A”.
